Data set [1] addresses T1, human AR (androgen receptor) (Homo sapiens, UniProt P10275).
T1 construct: expressed in transfected cells; host or cells: 293 cells (293-AR lysate)
T1 sequence (P10275 1-920): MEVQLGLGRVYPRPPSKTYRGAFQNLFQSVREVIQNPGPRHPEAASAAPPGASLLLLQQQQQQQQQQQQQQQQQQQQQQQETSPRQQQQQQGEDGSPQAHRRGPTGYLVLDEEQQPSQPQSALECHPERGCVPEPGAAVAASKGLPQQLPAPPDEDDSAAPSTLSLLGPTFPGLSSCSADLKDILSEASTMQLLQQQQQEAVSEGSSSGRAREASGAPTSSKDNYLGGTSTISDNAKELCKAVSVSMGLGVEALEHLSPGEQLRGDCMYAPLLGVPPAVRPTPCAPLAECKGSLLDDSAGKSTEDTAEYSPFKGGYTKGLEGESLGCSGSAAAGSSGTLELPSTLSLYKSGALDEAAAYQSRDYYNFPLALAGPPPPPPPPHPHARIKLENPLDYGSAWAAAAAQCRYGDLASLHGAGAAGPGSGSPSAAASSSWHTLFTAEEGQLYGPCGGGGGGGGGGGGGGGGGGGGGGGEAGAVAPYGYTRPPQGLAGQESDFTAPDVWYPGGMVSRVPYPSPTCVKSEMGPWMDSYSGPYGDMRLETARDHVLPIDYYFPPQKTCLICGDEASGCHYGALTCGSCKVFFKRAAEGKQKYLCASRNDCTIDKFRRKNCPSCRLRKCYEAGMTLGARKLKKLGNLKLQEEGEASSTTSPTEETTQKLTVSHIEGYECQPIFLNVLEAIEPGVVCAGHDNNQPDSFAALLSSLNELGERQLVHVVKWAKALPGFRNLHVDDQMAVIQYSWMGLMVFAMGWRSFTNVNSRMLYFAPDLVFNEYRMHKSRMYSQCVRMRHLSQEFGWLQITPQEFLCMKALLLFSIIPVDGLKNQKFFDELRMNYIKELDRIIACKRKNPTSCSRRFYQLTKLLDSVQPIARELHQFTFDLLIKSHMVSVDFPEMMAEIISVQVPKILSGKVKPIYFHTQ
Kind of data set: Steroid hormone nuclear receptor binding assay, AR binding. Summed up: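 Competition binding with lysates of 293 cells overexpressing human AR, [3H]-methyltrienolone tracer, compounds from about 0.01 nM to 10 μM, overnight at 4 °C; non-specific binding set with 500 nM methyltrienolone. Bound tracer counted by scintillation after charcoal-dextran separation; IC50 converted to Ki by Cheng-Prusoff using Kd from saturation binding.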

Data set [2] has as its target T2, human androgen receptor (AR) (Homo sapiens, UniProt P10275).
T2 construct: expressed in transfected cells; host or cells: mouse myoblast C2C12 cells, transiently co-transfected
T2 sequence (P10275 1-920): T1 sequence (P10275 1-920)
In words: C2C12 AR/ARE reporter assay. Type of data set: cell-based. The conditions noted are these: for Emax: C2C12, read-out: C2C12 % Efficacy. The procedure, abridged: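 Mouse C2C12 myoblasts co-transfected with AR/ARE reporter were plated in charcoal-stripped serum and treated for 48 h with compound from about 0.01 nM to 10 μM. Luciferase activity gave EC50 by 4-parameter logistic fit. Efficacy is expressed as % of maximal stimulation by 10 nM methyltrienolone.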
(In general: A reporter such as luciferase makes a cellular process visible.)

Where two headings read alike, the source gives them in different places.

One may read the melting point as the temperature, or range, at which the solid turns liquid. Broadly, the Ki is a measure of affinity in units of concentration, obtained from inhibition or displacement. Usually EC50 stands for the midpoint of the concentration-response curve. Compound `CC(C)C(=O)NC1CCc2c(c3cc(Br)ccc3n2Cc2cccc(F)c2)C1` (centres unmarked) [Example 1, N-[9-(3-Fluorobenzyl)-6-bromo-2,3,4,9-tetrahydro-1H-carbazol-3-yl]isobutyramide] displayed a melting point of 177 to 179 °C. The Ki in data set [1] (read-out: AR binding Ki, average of n trials) was 2.6 nM. Further, the EC50 in data set [2] (read-out: C2C12 EC50, C2C12 AR/ARE reporter assay, average of n trials) stood at 2.3 nM.
Take `CC(C)C(=O)NC1CCc2c(c3ccccc3n2Cc2ccccc2)C1` (centres unmarked) [Example 2]: the melting point was in the range of 191 to 193 °C. The compound also displayed a Ki in data set [1] of 17.7 nM. Moreover, in data set [2], a half-maximal effect (EC50) was put at 313 nM and the Emax is 59.4%.
On the same counts, the results for `CC(C)C(=O)NC1CCc2c(c3ccccc3n2Cc2cccc(F)c2)C1` (centres unmarked) [Example 3] are 170 to 172 °C, 10.1 nM, 194 nM and 66.4%.
For the compound `CC(C)C(=O)NC1CCc2c(c3cc(F)ccc3n2Cc2ccccc2Cl)C1` (centres unmarked) [Example 5], the melting point is 155 to 157 °C. For the same compound, the Ki in data set [1] turned out to be 24.6 nM. In data set [2], the Emax came to 80.3%.
In the case of `COc1ccccc1Cn1c2c(c3cc(F)ccc31)CC(NC(=O)C(C)C)CC2` (centres unmarked) [Example 6], the melting point was in the range of 196 to 198 °C. The Ki in data set [1] stood at 156 nM. In addition, in data set [2], the midpoint of the response, the EC50, lay at 1770 nM and the Emax was 49.7%.
`CC(C)C(=O)NC1CCc2c(c3cc(F)ccc3n2Cc2ccccc2C#N)C1` (centres unmarked) [Example 7] showed a melting point of 164 to 167 °C. For the same compound, the Ki in data set [1] came to 99.6 nM. Moreover, the Emax in data set [2] worked out at 35.8%.
In turn, `CC(C)C(=O)NC1CCc2c(c3cc(F)ccc3n2Cc2cccc(F)c2)C1` (centres unmarked) [Example 8] returned a melting point of 181 to 184 °C. The Ki in data set [1] came to 2.5 nM. For the same compound, in data set [2], the concentration giving a half-maximal response (EC50) stood at 57.8 nM and the Emax is 108%.
The corresponding values for `CC(C)C(=O)NC1CCc2c(c3cc(F)ccc3n2Cc2cccc(Cl)c2)C1` (centres unmarked) [Example 9] are 177 to 179 °C, 7.2 nM, 113 nM and 62.3%.
On the same counts, the results for `CC(C)C(=O)NC1CCc2c(c3cc(F)ccc3n2Cc2cccc(C#N)c2)C1` (centres unmarked) [Example 11] are 184 to 186 °C, 61.5 nM, 2180 nM and 36.3%.
The corresponding values for `CC(C)C(=O)NC1CCc2c(c3cc(F)ccc3n2Cc2ccc(F)cc2)C1` (centres unmarked) [Example 12] are 166 to 168 °C, 25 nM, 186 nM and 50%.
Turning to `CC(C)C(=O)NC1CCc2c(c3cc(F)ccc3n2Cc2ccc(Cl)cc2)C1` (centres unmarked) [Example 13], the melting point is 188 to 190 °C. In data set [1], this compound registered a Ki of 33.5 nM. For the same compound, in data set [2], the EC50 turned out to be 1030 nM and the Emax came out at 55.5%.
The corresponding values for `CC(C)C(=O)NC1CCc2c(c3cc(F)ccc3n2Cc2ccc(C#N)cc2)C1` (centres unmarked) [Example 14] are 181 to 184 °C, 81.4 nM, 927 nM and 36.4%.
`COc1ccc(Cn2c3c(c4cc(F)ccc42)CC(NC(=O)C(C)C)CC3)cc1` (centres unmarked) [Example 15] came in with a melting point of 178 to 181 °C. The compound also returned an inhibition constant Ki in data set [1] of 275 nM. The Emax in data set [2] stood at 15.3%.
In turn, `CC(C)C(=O)NC1CCc2c(c3cc(Cl)ccc3n2Cc2ccccc2F)C1` (centres unmarked) [Example 17] came in with a melting point of 190 to 193 °C. For the same compound, in data set [1], the Ki was determined as 8.6 nM. Moreover, in data set [2], the EC50 stood at 148 nM and the Emax turned out to be 62.1%.
On the same counts, the results for `CC(C)C(=O)NC1CCc2c(c3cc(Cl)ccc3n2Cc2ccccc2Cl)C1` (centres unmarked) [Example 18] are 197 to 199 °C, 10.5 nM, 153 nM and 82.1%.
The corresponding values for `COc1ccccc1Cn1c2c(c3cc(Cl)ccc31)CC(NC(=O)C(C)C)CC2` (centres unmarked) [Example 19, N-[6-chloro-9-(2-methoxy-benzyl)-2,3,4,9-tetrahydro-1H-carbazol-3-yl]-isobutyramide] are 141 to 149 °C, 37.8 nM, 245 nM and 63.2%.
The corresponding values for `CC(C)C(=O)NC1CCc2c(c3cc(Cl)ccc3n2Cc2cccc(Cl)c2)C1` (centres unmarked) [Example 22] are 187 to 189 °C, 3.5 nM, 75.7 nM and 74.7%.
Compound `CC(C)C(=O)NC1CCc2c(c3cc(Cl)ccc3n2Cc2ccc(Cl)cc2)C1` (centres unmarked) [Example 26] showed a melting point of 176 to 178 °C. Moreover, in data set [1], the inhibitory constant (Ki) turned out to be 16.6 nM. For the same compound, in data set [2], a half-maximal effect (EC50) was put at 301 nM and the Emax stood at 33%.
In turn, `COc1ccc(Cn2c3c(c4cc(Cl)ccc42)CC(NC(=O)C(C)C)CC3)cc1` (centres unmarked) [Example 27] yielded a melting point of 182 to 184 °C. In data set [1], this compound displayed an inhibition constant Ki of 45.8 nM. Further, the Emax in data set [2] came to 23.2%.
In the case of `CC(C)C(=O)NC1CCc2c(c3cc(Cl)ccc3n2Cc2ccc(C#N)cc2)C1` (centres unmarked) [Example 28], the melting point lay in the range of 158 to 162 °C. The Ki in data set [1] turned out to be 12.8 nM. Also, in data set [2], the EC50 came to 301 nM and the Emax amounted to 64.3%.
On the same counts, the results for `CC(C)C(=O)NC1CCc2c(c3cc(Br)ccc3n2Cc2ccccc2F)C1` (centres unmarked) [Example 31] are 194 to 197 °C, 5.3 nM, 58.7 nM and 70.8%.
Regarding `CC(C)C(=O)NC1CCc2c(c3cc(Br)ccc3n2Cc2ccccc2C#N)C1` (centres unmarked) [Example 33], the melting point fell in the range of 240 to 241.5 °C. In data set [1], this compound registered an inhibition constant Ki of 13 nM. Moreover, in data set [2], the EC50 worked out at 433 nM and the Emax is 87.3%.
Compound `CC(C)C(=O)NC1CCc2c(c3cc(Br)ccc3n2Cc2cccc(Cl)c2)C1` (centres unmarked) [Example 36] showed a melting point of 186 to 188 °C. The same compound registered a Ki in data set [1] of 7.6 nM. Further, in data set [2], a half-maximal effect (EC50) was put at 20.7 nM and the Emax worked out at 99.4%.
The corresponding values for `COc1cccc(Cn2c3c(c4cc(Br)ccc42)CC(NC(=O)C(C)C)CC3)c1` (centres unmarked) [Example 37] are 176 to 180 °C, 9.1 nM, 109 nM and 95.5%.
The corresponding values for `CC(C)C(=O)NC1CCc2c(c3cc(Br)ccc3n2Cc2cccc(C#N)c2)C1` (centres unmarked) [Example 38] are 228 to 230 °C, 9.7 nM, 108 nM and 79.5%.
The compound `CC(C)C(=O)NC1CCc2c(c3cc(Br)ccc3n2Cc2ccc(F)cc2)C1` (centres unmarked) [Example 39] showed a melting point of 165 to 170 °C. This compound also showed a Ki in data set [1] of 5.3 nM. In data set [2], the EC50 was 28.9 nM and the Emax was 76.1%.
The corresponding values for `CC(C)C(=O)NC1CCc2c(c3cc(Br)ccc3n2Cc2ccc(Cl)cc2)C1` (centres unmarked) [Example 40] are 142 to 149 °C, 30.9 nM, 188 nM and 68%.
The corresponding values for `COc1ccc(Cn2c3c(c4cc(Br)ccc42)CC(NC(=O)C(C)C)CC3)cc1` (centres unmarked) [Example 41] are 120 to 125 °C, 43.2 nM, 1820 nM and 46.6%.
On the same counts, the results for `Cc1ccc2c(c1)c1c(n2Cc2ccccc2)CCC(NC(=O)C(C)C)C1` (centres unmarked) [Example 42] are 197 to 199 °C, 63.6 nM, 30.4 nM and 73%.
The compound `Cc1ccc2c(c1)c1c(n2Cc2ccccc2F)CCC(NC(=O)C(C)C)C1` (centres unmarked) [Example 43] yielded a melting point of 174 to 176 °C. The compound also had a Ki in data set [1] of 104 nM. Also, in data set [2], the half-maximal effective concentration (EC50) is 462 nM and the Emax turned out to be 69.6%.
On the same counts, the results for `Cc1ccc2c(c1)c1c(n2Cc2ccccc2Cl)CCC(NC(=O)C(C)C)C1` (centres unmarked) [Example 44] are 194 °C, 94.2 nM, 305 nM and 71.1%.

These data come from patent US7935722B2 (Eli Lilly and Company, priority 2005, dated 2011).
